Measurements: US10449177B2, “Methods of treating mild cognitive impairment (MCI) and related disorders” (Buck Institute for Research on Aging, priority 2010, dated 2019)

Assays:
[1] = Degradation in brain tissue; format: in vitro ADME
[2] = test system: 7 W cells stably transfected with APP; assay: […] sAPPα assay in 7 W APP transfected cells; format: cell-based; settings: 7 W CHO cells, 1 μM compound, 24 h
Protocol: In vitro compound testing assay: 7 W CHO cells were seeded at 50,000 cells/well in a 96 wells plate for 24 h. Then their medium was changed for fresh medium supplemented with 1 μM compounds (e.g., tropisetron, disulfuram, honokiol, and/or nimetazepam). After 24 h, 20 μl of the medium was added to 2 μl of the complete protease inhibitor with 1 μM EDTA and kept at 4° C. until analysis. 2 μl of that medium was treated with the Perkin Elmer (PE) […]® Aβ kit to determine the amount of Aβ42 secreted by the cells in 24 h using the PE-Enspire reader. Another aliquot of 2 μl of the medium was diluted with 50 μl of the PE […]® buffer and was treated with the PE […]® sAPPα kit to determine the amount of sAPPα secreted by the cells in 24 h. For the assay, 2 μl of the final mixture was treated with the acceptor bead and the donor antibody followed by addition of the donor beads and the […]® signal was measured using a PE-Enspire reader. For measurement of APPneo, the 50,000 cells were treated after seeding with fresh medium supplemented with or without the compound, but without fetal bovine serum (FBS), in order to induce the formation of the APPneo fragment. […]

MBP-eAPP230-624 = target: T1, MBP-eAPP230-624 (Homo sapiens, UniProt P05067); assay: Small-angle X-ray scattering of MBP-eAPP230-624 incubated with compound; format: binding; settings: for Dmax (Å) ± 10 / MWcalc/MWseq ± 0.2 / Rg (Å) ± 2 / binding to MBP-eAPP230-624 / APP and effect on conformation or dimerization: 50 μM compound; for Dmax (Å) ± 10 / MWcalc/MWseq ± 0.2 / Rg (Å) ± 2: MBP-eAPP230-624, 4° C., 1 hour; for binding to MBP-eAPP230-624 / APP and effect on conformation or dimerization: small-angle X-ray scattering
T1 construct: 100 μg of purified MBP-eAPP230-624 were incubated with 50 μM Disulfuram
Protocol: X-ray scattering data collection: To 100 μg of purified MBP-eAPP230-624 were incubated with 50 μM Disulfuram or 50 μM Sulfiram in 20 mM sodium phosphate pH 7.4, 137 mM sodium chloride, 0.05% dimethyl sulfoxide at 4° C. for 1 hour. The control sample was incubated in the buffer alone. The samples were then concentrated to approximately 1.5 mg/ml using […] NML concentrators. Small-angle X-ray scattering data were collected using protein concentrations in the range of 0.25-1.5 mg/ml and an X-ray wavelength of 1.11 Å at beam line 12.3.1 (Advanced Light Source). Samples of the filtrate were used for buffer subtraction. Data were integrated with software customized for the beam line and processed with the program PRIMUS (Konarev (2003) Journal of Applied Crystallography 36, 1277-1282). The program GNOM (Svergun, (1992) J. Appl. Crystallogr. 25, 495-503) was used to calculate the maximum dimension and the radius of gyration and to estimate the intensity of the scattering at zero angle for higher concentration samples. The molecule weight of each protein was calculated by comparing to the scattering of proteins of known molecule weight.

[3] = Brain uptake testing (PK): plasma and brain levels by LC/MS/MS; design: species or system mice; settings: mouse, in vivo, sc
Protocol: Brain uptake testing (PK): In general, CNS exposure studies consisted of collection of heparinized plasma and brains after treatment with tropisetron, nimetazepam, disulfuram and honokiol following subcutaneous (sc) administration of the molecules at 10 mg/kg. Plasma and brain levels of the compounds were determined by quantitative LC/MS/MS methodology, conducted at Integrated Analytical Solutions (on the internet at ianalytical.net). Plasma samples were precipitated with acetonitrile:methanol (1:1) cocktail containing an internal standard. The brain samples were homogenized directly in ethylacetate or extracted from 5M guanidine homogenates using the liquid-liquid method. The resulting supernatant were evaporated to dryness and subjected to the LC/MS/MS analysis. For each compound 3 mice were used for analysis. The brain-to-plasma ratios and brain levels were then be calculated to identify the best candidate(s) for further testing.

APP = assay: sAPPα, Aβ40 and Aβ42 levels in brain (PD) of APP transgenic (PDAPP) mice; format: in vivo; settings: Tg mice; for sAPPα levels in hippocampus (Hip) and entorhinal cortex (ECx) / Aβ40 levels / Aβ42 levels: 10 mpk sc, 5 days
Protocol: […] Analysis: […]® kits from Perkin Elmer (PE) were used to quantify sAPPα (cat#: AL254C), sAPPβ (cat#: AL232C), Aβ40 (cat #: AL275C), Aβ42 (cat#: AL276C) and Tau (cat#: AL271C) from brain homogenates. The samples are added to an AlphaPlate-384 (cat#: 6005350). Twenty microliters (μl) of acceptor bead antibody mix was added to each five μl cerebrospinal fluid (CSF) sample and allowed to incubate for one hour at room temperature. Next, 25 μl of donor beads were added and allowed to incubate in the dark for 30 minutes at room temperature. Fluorescence was then measured on an EnsPire 96-well plate reader (Perkin-Elmer).
ELISA assays: ELISA kits from Invitrogen were also used to quantify Aβ1-40 (KHB3481) and Aβ1-42 (KHB3544) in duplicate from the CSF samples stored at −80° C. For assay, samples were thawed on ice and BSL-2 precautions practiced at all times. For the human Aβ 1-42 ultrasensitive ELISA, samples were diluted 1:2 (50 μl CSF plus 50 μl kit-provided standard diluent buffer). For the human Aβ1-40 ELISA, samples were diluted 1:15 (6.7 μl CSF plus […] of standard diluent buffer). Assays were performed according to manufacturer's instructions. In short, standards and samples were added to a plate pre-coated with a monoclonal capture antibody specific for the amino terminus of Hu Aβ. The samples were co-incubated with a rabbit detection antibody (Ab) specific for the carboxy terminus of the Aβ species being assayed for 3 hr at room temperature (Aβ 1-40) to overnight at 4° (Aβ 1-42) with gentle rocking After washing, bound rabbit Ab was detected using a horseradish peroxidase-labeled anti-rabbit secondary Ab. After washing again, bound HRP-anti rabbit Ab was detected colorimetrically (Spectramax 190, Molecular Devices) by the addition of a substrate solution. 1 mM 4-(2-Aminoethyl)benzenesulfonyl fluoride hydrochloride (AEBSF) protease inhibitor (101500, Calbiochem) was added to standards and samples.
In case of tropisetron the testing was done at 0.3 mpk, while in case of the other compounds (e.g., nimetazepam, disulfuram and honokiol) it was done at 10 mpk. From the collected brains the hippocampi were dissected. Levels of sAPPα, and Aβ1-40, Aβ1-42 and APPneo were measured by […] assay ([…] Perkin-Elmer), and Aβ1-40, Aβ1-42 (Invitrogen, sensitive ELISA kit) in brain homogenates of Tg mice. All procedures involved have been described (Galavan 2006, Proc Natl Acad Sci USA, 103, 7130-7135). […] The brain-to-plasma ratio (PK) of tropisetron and sAPPalpha/Aβ42 ratios (PD) were then determined.

[4] = stated as known for the benzodiazepine; cited from earlier work

T1 sequence (P05067 230-624 isoform P05067-4): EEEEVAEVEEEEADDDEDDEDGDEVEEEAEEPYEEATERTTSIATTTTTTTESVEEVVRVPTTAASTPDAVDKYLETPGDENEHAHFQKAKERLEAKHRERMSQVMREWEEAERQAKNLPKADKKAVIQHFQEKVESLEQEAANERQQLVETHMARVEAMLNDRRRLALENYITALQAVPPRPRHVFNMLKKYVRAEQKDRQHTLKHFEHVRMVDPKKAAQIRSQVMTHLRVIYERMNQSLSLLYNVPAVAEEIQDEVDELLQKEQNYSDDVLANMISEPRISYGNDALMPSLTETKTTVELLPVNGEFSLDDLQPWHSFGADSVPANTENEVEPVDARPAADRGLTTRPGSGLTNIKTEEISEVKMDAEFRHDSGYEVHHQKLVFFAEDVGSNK

SMILES | stability in brain tissue [1] | sAPPα levels secreted by cells [2] | Dmax (Å) ± 10 (MBP-eAPP230-624) [Å] | MWcalc/MWseq ± 0.2 (MBP-eAPP230-624) | Rg (Å) ± 2 (MBP-eAPP230-624) [Å] | binding affinity relative to sulfuram (MBP-eAPP230-624; inferred from greater effect in X-ray scattering) | binding to MBP-eAPP230-624 / APP and effect on conformation or dimerization (MBP-eAPP230-624; listed as Disulfuram) | binding to MBP-eAPP230-624 / APP and effect on conformation or dimerization (MBP-eAPP230-624; listed as disulfuram) | blood-brain-barrier / brain penetration [3] | Aβ levels (APP; 10 mpk) | sAPPα levels in hippocampus (Hip) and entorhinal cortex (ECx) (APP) | blood-brain-barrier penetration (known) [4] | Aβ40 levels (APP) | Aβ42 levels (APP) | sAPPα levels in hippocampus (Hip) and entorhinal cortex (ECx) (APP; 10 mg/kg) | sAPPα levels in hippocampus (Hip) and entorhinal cortex (ECx) (APP; listed as nimetazepam, 10 mg/kg) | binding to MBP-eAPP230-624 / APP and effect on conformation or dimerization (MBP-eAPP230-624)
CCN(CC)C(=S)SSC(=S)N(CC)CC [Disulfiram, 1,1′,1″,1′″-[disulfanediylbis(carbonothioylnitrilo)]tetraethane] | degrades rapidly in brain tissue | increase | 160 | 1.5 | 51 | higher binding affinity | can bind to APP and disrupt APP dimerization | bind to MBP-eAPP230-624 and alter the conformation of the protein | low blood-brain-barrier penetration | no changes | no changes |  |  |  |  |  | 
CN1C(=O)CN=C(c2ccccc2)c2cc([N+](=O)[O-])ccc21 [Nimetazepam, 2-methyl-9-nitro-6-phenyl-2,5-diazabicyclo[5.4.0] undeca-5,8,10,12-tetraen-3-one] |  |  |  |  |  |  |  |  |  |  |  | cross the blood-brain-barrier well | No significant changes | No significant changes | significant increase | increase | 
CCN(CC)C(=S)SC(=S)N(CC)CC [Sulfiram] |  |  | 170 | 1.7 | 53 |  |  |  |  |  |  |  |  |  |  |  | bind to MBP-eAPP230-624 and alter the conformation of the protein
C=CCc1ccc(O)c(-c2ccc(O)c(CC=C)c2)c1 [honokiol, 2-(4-hydroxy-3-prop-2-enyl-phenyl)-4-prop-2-enyl-phenol] |  |  |  |  |  |  |  |  | penetrates the brain well |  | no significant increase |  | No significant changes | No significant changes |  |  | 
